Patent publication US20200360471A1, “METHODS OF TREATING AND PREVENTING VIRAL INFECTIONS” (priority 2017, published 2020)
Peptide text beside a SMILES is read from it. * marks the point of attachment. Decanoyl = CCCCCCCCCC(=O)*; CH2Cl = ClC*

Key:
TLR7 [1] = assay: Ongoing inflammation in PBMC cultures: imiquimod 3 hrs followed by omiganan 21 hrs; format: cell-based, human; settings: imiquimod alone, PBMC
Experimental: (§1) Primary cell cultures were prepared in RPMI including 5% autologous plasma. Isolated PBMC cells were cultured in 96-well plates at a density of 0.5×10^6cells/well at 37° C., under humidified 5% CO2.
(§2) IL-1β, TNFα, IL-6 and IL-8 were measured simultaneously with a fixed electrochemoluminescence platform based on the sandwich ELISA principle of capture and detection antibodies, produced by MESO SCALE DISCOVERY (MSD, MESO SCALE QUICKPLEX SQ120). The applied assay was the V-PLEX PLUS pro-inflammatory cytokine panel II, including IL-1β, TNFα, IL-6 and IL-8. This assay includes manufacturer-provided control samples with indicated nominal values for comparison. These lyophilized controls, i.e. freeze-dried controls for IL-1β, TNFα, IL-6, IL-8, were prepared freshly at the time of use. QC samples were prepared from the calibrator at 3 different concentrations along the standard curve as multiple aliquots from a single batch and maintained at −20° C. Low, medium and high concentration controls were included in every multiplex assay run to control intra- and inter-assay variation. V-PLEX panels are specific for the detection of human chemokines and cytokines, and combinations have been validated by the manufacturer, to ensure no cross-reactivity.
Briefly, PBMC primary cultures were prepared from 4 donors. […] The readouts for the following cytokine and chemokine release were measured: IL-1β, IL-2, IL-4, IL-6, IL-8 HA, IL-8, IL-12p70, IL-13, IFN-γ, and TNF-α were measured. The cultures were prepared in duplicate.

HPVS PsV = settings: read-out: IC50, inhibition of uptake of HPVS PsV; PsV 1:6000 dilution, 293TT cells
Experimental: Pseudovirus (PsV) of HPVS was prepared using method described by Buck et al, (Journal of Virology, January 2004; 751-757) and used as a model HPV in this study. The PsV stocks were prepared by co-transfecting human 293TT cells with HPVS viral plasmid p5Shell containing codon-modified papillomavirus capsid genes for L1 and L2 proteins, and pcLucF reporter plasmid containing the luciferase gene for detecting viral infection. The cell lysates containing the capsidized virus was used as the PsV stock. Optimal PsV dilution factor was determined based on the luciferase activity in 293TT cells infected with serially diluted HPVS PsV.
Data were collected on a Molecular Devices Flexstation 3 Microplate Reader using Softmax Pro v5.4.4. Data analysis was performed on Prism software using four parameter logistic model. […] Furin Inhibitor I was used as a positive control for HPVS PsV inhibition since it blocks the viral entry into host cells.
Two runs were performed for each dilution level.

[2] = tested on: toll-like receptor 3 (TLR3) pathways / RIG-1/Mda5; assay: Qualification of the polyI:C PBMC challenge (cytokine release, 24 hrs); format: cell-based, human
Experimental: Peripheral Blood Mononuclear Cells (PBMCs) were isolated from sodium heparinized blood samples from healthy donors using SEPMATE with LYMPHOPREP ([…] TECHNOLOGIES) based on ficoll density centrifugation. Primary cell cultures were prepared in RPMI including 5% autologous plasma. Isolated PBMC cells were cultured in 96-well plates at a density of 0.5×10^6cells/well at 37° C., under humidified 5% CO2.
IL-1β, TNFα, IL-6 and IL-8 were measured simultaneously with a fixed electrochemoluminescence platform based on the sandwich ELISA principle of capture and detection antibodies, produced by MESO SCALE DISCOVERY (MSD, MESO SCALE QUICKPLEX SQ120). The applied assay was the V-PLEX PLUS pro-inflammatory cytokine panel II, including IL-1β, TNFα, IL-6 and IL-8. This assay includes manufacturer-provided control samples with indicated nominal values for comparison. These lyophilized controls, i.e. freeze-dried controls for IL-1β, TNFα, IL-6, IL-8, were prepared freshly at the time of use. […]
IFNα was quantified by a sandwich ELISA based on specific capture and detection antibodies for various matrices (MABTECH), according to the manufacturer's instructions. […]
IFNβ was quantified by a sandwich ELISA based on specific capture and detection antibodies for various matrices (PBL ASSAY SCIENCE), according to the manufacturer's instructions. […]

TLR3/RIG-1/Mda5 = assay: polyI:C-induced cytokine responses in PBMC cultures with peptide pre-treatment; format: cell-based, human; settings: 5 or 25 μg/mL peptide, 30 min pre-treatment, 24 hrs
Experimental: as §1, §2
(§3) IFNα was quantified by a sandwich ELISA based on specific capture and detection antibodies for various matrices (MABTECH), according to the manufacturer's instructions. QC samples were prepared from the calibrator at 3 different concentrations along the standard curve as multiple aliquots from a single batch and maintained at −20° C.
as §3, with “IFNβ” for “IFNα”, “(PBL ASSAY SCIENCE),” for “(MABTECH),”, “C. freezer.” for “C.”
(§4) Briefly, PBMC primary cultures were prepared from 4 healthy donors (2 males, 2 females) as described above. […] The cultures were prepared in duplicate and the readouts for pan-IFNα and IFNβ (ELISA) were measured once. Five-point concentration-response curves were constructed for the various treatment conditions in the PBMC cultures, freshly isolated from 4 subjects.

TLR7 [3] = assay: imiquimod-induced cytokine responses in PBMC cultures with peptide pre-treatment; format: cell-based, human
Experimental: as §1, §2, §3
as §3, with “IFNβ” for “IFNα”, “(PBL ASSAY SCIENCE),” for “(MABTECH),”, “C. freezer.” for “C.”
as §4

[4] = 5 or 25 μg/mL peptide, 30 min pre-treatment, 24 hrs
[5] = right-shift of imiquimod concentration response curves

Which results are given for `CC(C)Cn1cnc2c(N)nc3ccccc3c21` [Imiquimod, imiquimod]?
concentration-effect relationship for IL-6 and TNF-α (TLR7 [1]): bell-shaped; imiquimod concentration inducing IL-6 release (TLR7 [1]): exceeding 0.4 μg/ml; imiquimod concentration inducing IL-8 release (TLR7 [1]): exceeding 0.4 μg/ml; imiquimod concentration inducing TNF-α release (TLR7 [1]): exceeding 0.4 μg/ml; imiquimod concentration needed for IL-10 release (TLR7 [1]): exceeding 2 μg/ml

With `CCCCCCCCCC(=O)N[C@@H](CCCN=C(N)N)C(=O)N[C@H](C(=O)N[C@@H](CCCCN)C(=O)N[C@@H](CCCN=C(N)N)C(=O)CCl)C(C)C` [Furin Inhibitor I, reference compound] (Decanoyl-RVKR-CH2Cl) as the compound, how does the IC50 (HPVS PsV) read?
The IC50 was 200 nM.

For PolyI:C, which “PBMC response (cytokines)” value ([2]; absence of the transfection carrier Lyovec) is on record?
Its value is “mild PBMC response”.

And the “PBMC response (cytokines)” value ([2]; presence of Lyovec transfection carrier)?
Its value is “substantial polyI:C-driven responses”.

Which results are given for “LLGDFFRKSKEKIGKEFKRIVQRIKDFLRNLVPRTES (LLGDFFRKSKEKIGKEFKRIVQRIKDFLRNLVPRTES; LL-37 peptide) [antimicrobial peptide belonging to the cathelicidin family, synthesized by ANASPEC]”?
IL-6 responses to polyI:C (TLR3/RIG-1/Mda5) (TLR3/RIG-1/Mda5): did not significantly affect; TNFα responses to polyI:C (TLR3/RIG-1/Mda5) (TLR3/RIG-1/Mda5): did not significantly affect; polyI:C-driven IL-1β release (TLR3/RIG-1/Mda5): did not significantly affect; spontaneous and polyI:C-driven IL-8 release (TLR3/RIG-1/Mda5): strongly inhibited; interferon responses induced by polyI:C stimulation (TLR3/RIG-1/Mda5; PBMC of 4 donors): enhanced; IL-6 responses to imiquimod (TLR7) (TLR7 [3]; [4]): inhibited; TNFα responses to imiquimod (TLR7) (TLR7 [3]; [4]): inhibited; interferon responses in the presence of imiquimod (TLR7 [3]; 5 or 25 μg/mL peptide, 30 min pre-treatment, 24 hrs, PBMC of 4 donors): induced strong interferon responses; IL-1(3 responses to imiquimod (TLR7)) (TLR7 [3]; [5]): inhibited; IL-8 responses to imiquimod (TLR7) (TLR7 [3]; [5]): inhibited
